Values after ≈ are worked out from the molar mass of the structure shown.

The nature of data set [1]: physchem. The note with it: water.
Description: The method development involved the study of methanol and acetonitrile as organic modifiers, pH and flow-rate using a Chromolith RP-18e (150 mm×4.6 mm I.D.) column. After comparing the performance the optimum analysis of these compounds was achieved using 50 mM acetate buffer (pH 5.0)-acetonitrile (80:20, v/v) as mobile phase, 1 mL min-1 flow-rate and UV detection at maximum absorbance wavelength of 250 nm.
The nature of data set [2]: Solubility enhancement in water with glycolic acid functionalized iron oxide nanoparticles (HPLC). The note with it: 2 ml suspension 20 g/L in water + 200 mg glycolic acid IONPs; part converted to 4-aminophenol.
Description: The clear solution was analyzed using HPLC in order to determine the final concentration.
Data set [3] in a line: Solubility and metastable zone width of D-mannitol in water and water-ethanol mixtures (Crystal16). Conditions: with an increase in the amount of ethanol (85-15, 75-25, 50-50% wt/wt water-ethanol). Format: physicochemical. From the text: According to the results of D-mannitol in water and water-ethanol mixtures, the solubility decreases with an increase in the amount of ethanol in water-ethanol mixtures. In order to know the required amount of functionalized nanoparticles and the operating region for crystallization, the MSZW of D-mannitol is important. For the samples of D-mannitol in the mixtures of 85-15 and 75-25% wt/wt of water-ethanol, the cloud point lies above the saturation temperature of D-mannitol in pure water. This means that, for the mixtures of 85-15 and 75-25% water-ethanol, and the solutes with a concentration of 193 mg/ml at 20° C., spontaneous nucleation will not occur because they will remain in solution. However, these experiments helped to determine the optimum operating supersaturation levels as well as the amount of antisolvent required to crystallize compounds at a given concentration. […]
The solubility and metastable zone width (MSZW) of D-mannitol was measured in pure DI water and DI water-ethanol mixtures at different concentrations by adding a known amount of D-mannitol and 1 mL of solvent or solvent mixtures respectively to a 1.5 mL glass vial. […] The temperature at which the suspension turned into a clear solution was recorded and assumed to be the saturation temperature. […] The temperatures at which the crystals are detected are assumed to be a cloud point. […]

The nature of data set [4]: NaCl concentration change in water after crystallization with functionalized gold nanoparticles (digital density meter). Format: physicochemical. Conditions: 1.8 nm gold nanoparticles with ethanol group, seeded, 16 hour stirring. From the text:
The antisolvent crystallization of NaCl is the best example of the influence of agglomeration on the final product purity. Though the crystals are crystallized from a mother liquor containing as much as 50% weight antisolvent (on a solvent basis), the uptake of the antisolvent is as low as 30 ppm. In the present study, functionalized nanoparticles were used to crystallize NaCl from a water solution. NaCl is highly soluble in water and slightly soluble in ethanol. In the case of NaCl crystallization, water was used as a solvent and ethanol was used as an antisolvent. NaCl was crystallized in water using 1.8 nm functionalized nanoparticles with an ethanol group at the open terminal. […] After 4 hours the sample was seeded with NaCl crystals and the sample was crystallized only after 16 hour of stirring. The initial and final concentration of NaCl was measured using the Digital Density Meter DMA4500. This instrument is used for accurate measurements of solvent density necessary for the concentration measurements. […] The change in concentration after crystallization measured using the digital density meter was 27 mg.

The nature of data set [5]: physchem. The note with it: water, thermodynamic from solid. The protocol: A saturated solution of ibuprofen in water was prepared at room temperature. […] An additional 20 mg of ibuprofen was added to 5 mL of the saturated solution. Then, 200 mg of iron oxide nanoparticles that had been functionalized with glycolic acid were added and mixed. Clear samples of solution were then taken from the slurry and analyzed with HPLC.

Regarding `O=[N+]([O-])c1ccc(O)cc1` [4-nitrophenol], in the data set “physchem [1]” (20 °C, thermodynamic from solid), the thermodynamic solubility at 24 h is 13 mg/mL (≈ 93.5 mM). This molecule gave a solubility at 24 h in the data set “physchem [1]” (25 °C) of 13 mg/mL (≈ 93.5 mM). The “concentration in clear solution after IONP addition” value in data set [2] came to 16500 µg/mL.

Consider `OC[C@@H](O)[C@@H](O)[C@H](O)[C@H](O)CO` [D-mannitol], for which, in data set [3], the “solubility of D-mannitol in water-ethanol mixtures” value is listed as “decreases”.

Take `[Cl-].[Na+]` [NaCl, Sodium chloride]: in data set [4], the “change in concentration after crystallization” value came out at 27 mg.

Consider `CC(C)Cc1ccc(C(C)C(=O)O)cc1` (stereo not drawn) [ibuprofen], for which the solubility in the data set “physchem [5]” stood at 0.009 mg/mL (≈ 0.0436 mM).

The values are drawn from patent US10828578B2, “Reversible control of solution solubility using functionalized nanoparticles” (Massachusetts Institute of Technology, priority 2016, dated 2020).
